Columns and labels:
[1] = test system: Contingent Negative Variation (CNV), electric potential of the brain; test: Contingent Negative Variation (CNV) measurement while inhaling the aroma sample; format: in vivo, human; settings: for Stimulative or sedative effect by CNV (FIG. 1): 1% ethanol solution of each sample, 5 healthy adult women, over 100% of CNV = stimulative, less than 100% = sedative
Experimental: First of all, the test method of this invention is explained. The change of negative electric potential of brain called Contingent Negative Variation (CNV) was measured. CNV is the gradual fluctuation of electric potential of the brain. It is related to the fluctuation of the mental process and the conscious level such as an attention, expectation and anticipation.
An experiment to study perfume effects was as follows. After two seconds from a warning sound stimulation, a starting signal light of an exercise is turned on. Then, as soon as light is observed, the pushing button behavior is demanded as exercise reaction. In this series of steps, a sample of aroma is located at 10cm before nose tip. The aroma can be always recognized along with breathing. A recording electrode for the CNV measurement is fixed to the frontal region of the head. An electric potential between the frontal region and ear lobe is measured.
The fluctuation area of this section is expressed as comparative percentage (%) to 100% of blank (odorless stimulation). Also, aroma was presented in accordance with Latin square method.

[2] = test system: Contingent Negative Variation (CNV), electric potential of the brain; settings: administered drug; reported in the literature; cited from earlier work

For `COc1cc(C)cc(OC)c1` [DMB, 1,3-dimethoxy-5-methylbenzene], the “Stimulative or sedative effect by CNV (FIG. 1)” value [1] was “sedative effect”.
For `CC=Cc1ccc(OC)cc1` [anethole], the “Measured value of CNV” value ([1]; ethanol solution including 1 wt % of each sample, % relative to 100% of blank (odorless stimulation)) was 108%.
With `COc1ccc(C=O)cc1` [anisaldehyde, p-methoxy benzaldehyde] the “Stimulative or sedative effect by CNV (FIG. 1)” value [1] was “much stronger stimulative effect in comparison with conventional lemon oil” and the “Effective amount of anisaldehyde in the perfume ingredients” value ([1]; concluded from Table 2 (anisaldehyde in anethole)) was ≥ 1 wt %.
In the case of `Cn1c(=O)c2c(ncn2C)n(C)c1=O` [caffeine], the “Change of amplitude of CNV after administration” value [2] is listed as “increase of amplitude of CNV”.
In the case of `O=C1CN=C(c2ccccc2)c2cc([N+](=O)[O-])ccc2N1` [nitrazepam], the “Change of amplitude of CNV after administration” value [2] is given as “decrease of amplitude of CNV”.
